target: T1, human TLR7 (Homo sapiens, UniProt Q9NYK1); assay: HEK293-Blue-hTLR-7 cells assay; type: cell-based; details: HEK293-Blue-hTLR7 cells, SEAP reporter, R848 stimulation, 20 hrs
T1 sequence (Q9NYK1 27-1049): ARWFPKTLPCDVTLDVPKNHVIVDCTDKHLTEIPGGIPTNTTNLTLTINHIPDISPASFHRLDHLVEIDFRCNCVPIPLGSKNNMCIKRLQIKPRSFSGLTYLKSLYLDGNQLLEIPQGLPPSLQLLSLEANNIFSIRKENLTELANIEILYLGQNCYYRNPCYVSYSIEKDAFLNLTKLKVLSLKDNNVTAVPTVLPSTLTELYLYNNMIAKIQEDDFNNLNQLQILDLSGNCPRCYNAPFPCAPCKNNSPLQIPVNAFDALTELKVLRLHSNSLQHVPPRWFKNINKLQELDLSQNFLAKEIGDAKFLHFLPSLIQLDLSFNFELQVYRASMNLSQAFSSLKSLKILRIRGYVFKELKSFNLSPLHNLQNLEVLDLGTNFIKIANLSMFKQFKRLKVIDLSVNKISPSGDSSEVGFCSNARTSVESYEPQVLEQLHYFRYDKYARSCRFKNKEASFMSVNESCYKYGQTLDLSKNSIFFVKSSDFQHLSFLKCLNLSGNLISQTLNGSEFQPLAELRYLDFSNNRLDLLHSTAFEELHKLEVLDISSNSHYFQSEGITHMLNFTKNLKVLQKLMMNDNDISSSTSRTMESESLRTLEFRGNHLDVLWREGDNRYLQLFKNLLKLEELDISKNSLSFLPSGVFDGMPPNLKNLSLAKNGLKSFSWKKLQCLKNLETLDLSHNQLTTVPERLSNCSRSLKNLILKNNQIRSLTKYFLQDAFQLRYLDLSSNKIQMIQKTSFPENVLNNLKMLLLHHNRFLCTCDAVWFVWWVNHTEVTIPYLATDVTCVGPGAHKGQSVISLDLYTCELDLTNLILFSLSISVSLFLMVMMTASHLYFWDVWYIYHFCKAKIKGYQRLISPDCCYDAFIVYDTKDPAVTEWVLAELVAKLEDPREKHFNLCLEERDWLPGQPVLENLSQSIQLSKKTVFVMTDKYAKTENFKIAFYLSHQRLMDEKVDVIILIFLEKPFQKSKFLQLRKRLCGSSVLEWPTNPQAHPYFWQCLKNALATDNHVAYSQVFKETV
Source text: HEK293-Blue-hTLR-7 Cells Assay:
A stable HEK293-Blue-hTLR-7 cell line was purchased from InvivoGen (Cat. #: hkb-htlr7, San Diego, Calif., USA). These cells were originally designed for studying the stimulation of human TLR7 by monitoring the activation of NF-κB. A SEAP (secreted embryonic alkaline phosphatase) reporter gene was placed under the control of the IFN-β minimal promoter fused to five NF-κB and AP-1-binding sites. The SEAP was induced by activating NF-κB and AP-1 via stimulating HEK-Blue hTLR7 cells with TLR7 ligands. Therefore the reporter expression was declined by TLR7 antagonist under the stimulation of a ligand, such as R848 (Resiquimod), for incubation of 20 hrs. The cell culture supernatant SEAP reporter activity was determined using QUANTI-Blue™ kit (Cat. #: rep-qb1, Invivogen, San Diego, Ca, USA) at a wavelength of 640 nm, a detection medium that turns purple or blue in the presence of alkaline phosphatase.
HEK293-Blue-hTLR7 cells were incubated at a density of 250,000˜450,000 cells/mL in a volume of 170 μL in a 96-well plate in Dulbecco's Modified Eagle's medium (DMEM) containing 4.5 g/L glucose, 50 U/mL penicillin, […], […], 2 mM L-glutamine, 10% (v/v) heat-inactivated fetal bovine serum with addition of 20 sL test compound in a serial dilution in the presence of final DMSO at 1% and 10 μL of 20 uM R848 in above DMEM, perform incubation under 37° C. in a CO2 incubator for 20 hrs. Then 20 μL of the supernatant from each well was incubated with 180 sL Quanti-blue substrate solution at 37° C. for 2 hrs and the absorbance was read at 620-655 nm using a spectrophotometer. The signalling pathway that TLR7 activation leads to downstream NF-κB activation has been widely accepted, and therefore similar reporter assay was modified for evaluating TLR7 antagonist.

Going from `O=C(NC1CC2COCC(C1)N2)C1CN(c2ccc(C(F)(F)F)c3nccnc23)CC12CC2` (stereo not shown) [Example 6, N-(3-oxa-9-azabicyclo[3.3.1]nonan-7-yl)-5-[8-(trifluoromethyl)quinoxalin-5-yl]-5-azaspiro[2.4]heptane-7-carboxamide] to `O=C(NC1CC2CCC(C1)N2)C1CN(c2ccc(C(F)(F)F)c3nccnc23)CC12CC2` (stereo not shown) [Example 23, N-(8-azabicyclo[3.2.1]octan-3-yl)-5-[8-(trifluoromethyl)quinoxalin-5-yl]-5-azaspiro[2.4]heptane-7-carboxamide], the IC50 rises from 9 nM to 28 nM (3.1-fold).

Going from `O=C(NC1C2CCCC1CNC2)C1CN(c2ccc(C(F)(F)F)c3nccnc23)CC12CC2` (stereo not shown) [Example 8, N-(3-azabicyclo[3.3.1]nonan-9-yl)-5-[8-(trifluoromethyl)quinoxalin-5-yl]-5-azaspiro[2.4]heptane-7-carboxamide] to `O=C(NC1C2CCC1CNC2)C1CN(c2ccc(C(F)(F)F)c3nccnc23)CC12CC2` (stereo not shown) [Example 12, N-(3-azabicyclo[3.2.1]octan-8-yl)-5-[8-(trifluoromethyl)quinoxalin-5-yl]-5-azaspiro[2.4]heptane-7-carboxamide], the IC50 rises from 10 nM to 18 nM (1.8-fold). The first is the more potent here.

Compared with `O=C(NC1CC2CCCC(C1)N2)C1CN(c2ccc(C(F)(F)F)c3nccnc23)CC12CC2` (stereo not shown) [Example 10, N-(9-azabicyclo[3.3.1]nonan-3-yl)-5-[8-(trifluoromethyl)quinoxalin-5-yl]-5-azaspiro[2.4]heptane-7-carboxamide], `NC1CC(NC(=O)C2CN(c3ccc(C(F)(F)F)c4nccnc34)CC23CC3)C1` (stereo not shown) [Example 38, N-(3-Aminocyclobutyl)-5-[8-(trifluoromethyl)quinoxalin-5-yl]-5-azaspiro[2.4]heptane-7-carboxamide] is 4.9-fold higher in IC50: 12 nM for the first, 59 nM for the second. The first is the more potent here.

First: CN1CCC(NC(=O)C2CN(c3ccc(C(F)(F)F)c4nccnc34)CC23CC3)CC1 (stereo not shown) [Example 11, N-(1-methyl-4-piperidyl)-5-[8-(trifluoromethyl)quinoxalin-5-yl]-5-azaspiro[2.4]heptane-7-carboxamide]
Second: N[C@H]1CC[C@H](NC(=O)C2CN(c3ccc(C(F)(F)F)c4nccnc34)CC23CC3)CC1 (stereo partly shown) [Example 24, N-(4-aminocyclohexyl)-5-[8-(trifluoromethyl)quinoxalin-5-yl]-5-azaspiro[2.4]heptane-7-carboxamide]
The IC50 of the first is 2.2-fold lower: 13 nM for the first, 29 nM for the second.

First: N#Cc1ccc(N2CC(C(=O)NCC3CNCCO3)C3(CC3)C2)c2nccnc12 (stereo not shown) [Example 13, 5-(8-Cyanoquinoxalin-5-yl)-N-(morpholin-2-ylmethyl)-5-azaspiro[2.4]heptane-7-carboxamide]
Second: NC1CC(CNC(=O)C2CN(c3ccc(C(F)(F)F)c4nccnc34)CC23CC3)C1 (stereo not shown) [Example 31, N-[(3-aminocyclobutyl)methyl]-5-[8-(trifluoromethyl)quinoxalin-5-yl]-5-azaspiro[2.4]heptane-7-carboxamide]
The IC50 of the first is 2.3-fold lower: 18 nM for the first, 41 nM for the second. The first is the more potent here.

`O=C(NC1CC2CNCC(C2)C1)C1CN(c2ccc(C(F)(F)F)c3nccnc23)CC12CC2` (stereo not shown) [Example 15, N-(3-azabicyclo[3.3.1]nonan-7-yl)-5-[8-(trifluoromethyl)quinoxalin-5-yl]-5-azaspiro[2.4]heptane-7-carboxamide] and `O=C(NC1CC2CNCC2C1)C1CN(c2ccc(C(F)(F)F)c3nccnc23)CC12CC2` (stereo not shown) [Example 21, N-(1,2,3,3a,4,5,6,6a-octahydrocyclopenta[c]pyrrol-5-yl)-5-[8-(trifluoromethyl)quinoxalin-5-yl]-5-azaspiro[2.4]heptane-7-carboxamide] are within 1.5-fold of each other in IC50: 21 nM for the first, 28 nM for the second.

Compared with `C[C@H]1CN(c2ccc(C#N)c3ncccc23)C[C@@H]1C(=O)NC1CCN(C)CC1` [Example 16, (3R,4R)-1-(8-cyano-5-quinolyl)-4-methyl-N-(1-methyl-4-piperidyl)pyrrolidine-3-carboxamide], `C[C@H]1CN(c2ccc([N+](=O)[O-])c3ncccc23)C[C@@H]1C(=O)NC1CCN(C)CC1` [Example 27, (3R,4R)-4-Methyl-N-(1-methyl-4-piperidyl)-1-(8-nitro-5-quinolyl)pyrrolidine-3-carboxamide] is 1.7-fold higher in IC50: 22 nM for the first, 38 nM for the second. The first is the more potent here.

Going from `CN1CCC(NC(=O)C2CN(c3ccc(C#N)c4ncccc34)CC2C(F)(F)F)CC1` (stereo not shown) [Example 18, 1-(8-Cyano-5-quinolyl)-N-(1-methyl-4-piperidyl)-4-(trifluoromethyl)pyrrolidine-3-carboxamide] to `N#Cc1ccc(N2C[C@H](C(=O)NC3CCN(C4CCNCC4)CC3)[C@@H](C(F)(F)F)C2)c2nccnc12` [Example 35, (3R,4R)-1-(8-Cyanoquinoxalin-5-yl)-N-[1-(4-piperidyl)-4-piperidyl]-4-(trifluoromethyl)pyrrolidine-3-carboxamide], the IC50 rises from 23 nM to 55 nM (2.4-fold). The first is the more potent here.

`CN1CC(NC(=O)C2CN(c3ccc(C(F)(F)F)c4nccnc34)CC23CC3)C2(CC2)C1` (stereo not shown) [Example 20, N-(5-methyl-5-azaspiro[2.4]heptan-7-yl)-5-[8-(trifluoromethyl)quinoxalin-5-yl]-5-azaspiro[2.4]heptane-7-carboxamide] and `NC1CC2(C1)CC(NC(=O)C1CN(c3ccc(C(F)(F)F)c4nccnc34)CC13CC3)C2` (stereo not shown) [Example 22, N-(6-aminospiro[3.3]heptan-2-yl)-5-[8-(trifluoromethyl)quinoxalin-5-yl]-5-azaspiro[2.4]heptane-7-carboxamide] are within 1.5-fold of each other in IC50: 25 nM for the first, 28 nM for the second.

`C[C@@H]1CN(c2ccc(C(F)(F)F)c3nccnc23)C[C@H]1C(=O)NC1CCN(C)CC1` [Example 25, (3S,4S)-4-Methyl-N-(1-methyl-4-piperidyl)-1-[8-(trifluoromethyl)quinoxalin-5-yl]pyrrolidine-3-carboxamide] and `Cc1ccc(N2C[C@H](C(=O)NC3CCN(C)CC3)[C@@H](C)C2)c2nccnc12` [Example 33, (3R,4R)-4-Methyl-N-(1-methyl-4-piperidyl)-1-(8-methylquinoxalin-5-yl)pyrrolidine-3-carboxamide] are within 1.5-fold of each other in IC50: 33 nM for the first, 45 nM for the second.

Compared with `CN(C)CC1CC(NC(=O)C2CN(c3ccc(C(F)(F)F)c4nccnc34)CC23CC3)C1` (stereo not shown) [Example 26, N-[3-[(dimethylamino)methyl]cyclobutyl]-5-[8-(trifluoromethyl)quinoxalin-5-yl]-5-azaspiro[2.4]heptane-7-carboxamide], `N[C@H]1CC[C@@H](NC(=O)C2CN(c3ccc(C(F)(F)F)c4nccnc34)CC23CC3)CC1` (stereo partly shown) [Example 39, N-(4-Aminocyclohexyl)-5-[8-(trifluoromethyl)quinoxalin-5-yl]-5-azaspiro[2.4]heptane-7-carboxamide] is 2.1-fold higher in IC50: 36 nM for the first, 74 nM for the second.

`O=C(NC1CC2(CCNCC2)C1)C1CN(c2ccc(C(F)(F)F)c3nccnc23)CC12CC2` (stereo not shown) [Example 34, N-(7-azaspiro[3.5]nonan-2-yl)-5-[8-(trifluoromethyl)quinoxalin-5-yl]-5-azaspiro[2.4]heptane-7-carboxamide] and `N[C@@H]1C[C@H](NC(=O)C2CN(c3ccc(C(F)(F)F)c4nccnc34)CC23CC3)[C@@H]2C[C@@H]21` (stereo partly drawn) [Example 36, N-[(1R,2S,4R,5S)-4-amino-2-bicyclo[3.1.0]hexanyl]-5-[8-(trifluoromethyl)quinoxalin-5-yl]-5-azaspiro[2.4]heptane-7-carboxamide] are within 1.5-fold of each other in IC50: 46 nM for the first, 57 nM for the second.

`C[C@H]1CN(c2ccc(C#N)n3nccc23)C[C@@H]1C(=O)NC1CCN(C)CC1` [Example 44, (3R,4R)-1-(7-cyanopyrazolo[1,5-a]pyridin-4-yl)-4-methyl-N-(1-methyl-4 piperidyl)pyrrolidine-3-carboxamide] gave an IC50 of 84 nM.

Source: patent US20210323977A1, “PYRROLIDINYL AMIDE COMPOUNDS FOR THE TREATMENT OF AUTOIMMUNE DISEASE” (Hoffmann-La Roche Inc., priority 2018, published 2021)
